Results from paper PMC4444405 (Chemical biology & drug design, 2014).
Where two headings read alike, the source gives them in different places. Square brackets hold non-standard residues; d marks the D form. Ends that are not written are not given here. pY = N[C@@H](Cc1ccc(OP(=O)(O)O)cc1)C(=O)O

Assays:
[1] = molecular target: T1, Src-YEEI:pFAK peptide complex (Homo sapiens, UniProt P12931); assay: Z'Lyte end-point in vitro kinase assay, Src-YEEI in presence of pFAK peptide; format: biochemical; conditions: compound 10 μM; Z'Lyte library screen
[2] = system: Src-YEEI:pFAK peptide complex; assay: as above; format: biochemical, human; conditions: ratio of the IC50 values for Src-YEEI:pFAK peptide complex and Src-YEEI alone, Z'Lyte
Src-YEEI [3] = molecular target: T2, Src-YEEI (Homo sapiens, UniProt P12931); format: biochemical
[4] = molecular target: T1, Src-YEEI:pFAK peptide complex; format: biochemical; conditions: read-out: IC50, Src-YEEI + pFAK, ADP Quest
[5] = system: Src-YEEI:pFAK peptide complex; format: biochemical, human; conditions: ratio of the IC50 values for Src-YEEI:pFAK peptide complex and Src-YEEI alone, ADP Quest
Src-YEEI [6] = molecular target: T2, Src-YEEI; format: biochemical; conditions: read-out: IC50, Src-YEEI alone, ADP Quest
Src-YEEI [7] = molecular target: T2, Src-YEEI; format: biochemical; remark: listed apart in the source
Src-YEEI [8] = molecular target: T2, Src-YEEI; format: biochemical; remark: listed apart in the source

Row | Compound | percent inhibition of Src-YEEI:pFAK peptide complex in the screening assay [1] | Selectivity ratio, Z'Lyte [2] | percent inhibition of Src-YEEI alone in the screening assay (Src-YEEI [3]; 10 µM) | IC50 (Src-YEEI [3]; read-out: IC50, Src-YEEI alone, Z'Lyte) | IC50 [4] | Selectivity ratio, ADP Quest [5] | IC50 (Src-YEEI [6]) | percent of maximal activation of Src-YEEI (Src-YEEI [7]) | rate of ADP production by Src-YEEI in presence of peptide (Src-YEEI [8])
1 | COc1ccc(N(C(=O)Oc2c(C)cccc2C)c2ccnc(Nc3ccc(N4CCN(C)CC4)cc3)n2)c(OC)c1 [WH-4-023] | more than 70% | 0.94 | more than 70% | 1.28 µM | 0.025 µM | 0.76 | 0.019 µM | – | –
2 | AAAARALPSIPKLAN NEKQGVRSHTVSVSETDDY^PAEIID (AAAARALPSIPKLANNEKQGVRSHTVSVSETDD[pY]AEIID) [pFAK] | – | – | – | – | – | – | – | 40% | 1.0 pmol ADP produced/min
